The source of these data is US20230348418A1, “ISOINDOLINONE COMPOUNDS” (Monte Rosa Therapeutics, Inc., priority 2021, published 2023).

Molecules are shown by their SMILES. Read-outs that look alike come from different tables or passages of the source.

The target of assay [1] is T1, Full length wild-type cereblon CRBN (Homo sapiens, UniProt Q96SW2).
T1 construct: Full length wild-type cereblon CRBN (80.0 nM, 10 μL) was incubated in assay buffer
Nature of the assay: Fluorescence polarization (FP) assay, cereblon binding. Put shortly:
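Full-length wild-type human CRBN (80.0 nM) was preincubated with compound for 30 min at room temperature in 20 mM HEPES pH 8.0, 150 NaCl, 0.5 mM TCEP and 0.05% Tween 20. A Cy5-type thalidomide-linked fluorescent probe was then added. The FP signal was normalized to the DMSO control to derive IC50.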

The target of assay [2] is T2, GSPT1 (Homo sapiens, UniProt P15170+Q96SW2). Nature of the assay: Immunofluorescence assay for GSPT1 degradation in CAL-51 cells (Example 4). It is filed as cell-based. Also on record: host or cells: CAL-51. As for the experimental part: The representative compounds were tested in an immunofluorescence assay for their activity to bind to degrade GSPT1. […] Compounds were stored at 10 mM DMSO stocks. […] Cells were subsequently rinsed with PBS and fixed in 10% Formalin solution (50 μl, Sigma HT5011)) for 20 mins at room temperature. […] Following three further PBS washes, […] blocking buffer (1% BSA, Sigma A4503, in PBS) was added for 45 min for signal-to-noise reduction.
T2 sequence (P15170 whole entry): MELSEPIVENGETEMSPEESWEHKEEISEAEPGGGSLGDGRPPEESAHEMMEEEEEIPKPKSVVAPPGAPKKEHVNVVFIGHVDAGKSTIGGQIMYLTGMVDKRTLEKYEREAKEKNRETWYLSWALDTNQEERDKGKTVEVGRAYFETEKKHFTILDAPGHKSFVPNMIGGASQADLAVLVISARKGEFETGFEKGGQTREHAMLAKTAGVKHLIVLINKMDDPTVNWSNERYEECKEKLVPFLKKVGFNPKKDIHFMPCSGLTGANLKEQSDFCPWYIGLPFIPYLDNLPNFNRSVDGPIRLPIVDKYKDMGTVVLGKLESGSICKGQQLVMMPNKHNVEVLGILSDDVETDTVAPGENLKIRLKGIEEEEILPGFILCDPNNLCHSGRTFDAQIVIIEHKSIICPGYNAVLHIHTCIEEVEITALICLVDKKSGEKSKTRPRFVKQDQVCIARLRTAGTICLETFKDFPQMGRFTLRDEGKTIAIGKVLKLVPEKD
T2 sequence (Q96SW2 whole entry): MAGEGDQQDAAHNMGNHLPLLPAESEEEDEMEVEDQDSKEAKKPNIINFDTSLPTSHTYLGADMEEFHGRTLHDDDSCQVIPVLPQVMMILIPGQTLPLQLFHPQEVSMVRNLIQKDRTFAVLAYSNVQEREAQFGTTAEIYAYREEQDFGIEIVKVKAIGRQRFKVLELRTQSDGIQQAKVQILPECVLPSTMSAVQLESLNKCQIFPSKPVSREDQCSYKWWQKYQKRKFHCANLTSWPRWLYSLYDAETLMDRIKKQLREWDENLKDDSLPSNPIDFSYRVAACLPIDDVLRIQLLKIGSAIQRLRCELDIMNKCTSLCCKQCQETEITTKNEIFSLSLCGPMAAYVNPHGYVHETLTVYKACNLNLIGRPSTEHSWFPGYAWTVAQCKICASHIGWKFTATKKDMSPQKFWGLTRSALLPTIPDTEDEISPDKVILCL
T2 sequence (Q16531 2-1140 partner limits assumed): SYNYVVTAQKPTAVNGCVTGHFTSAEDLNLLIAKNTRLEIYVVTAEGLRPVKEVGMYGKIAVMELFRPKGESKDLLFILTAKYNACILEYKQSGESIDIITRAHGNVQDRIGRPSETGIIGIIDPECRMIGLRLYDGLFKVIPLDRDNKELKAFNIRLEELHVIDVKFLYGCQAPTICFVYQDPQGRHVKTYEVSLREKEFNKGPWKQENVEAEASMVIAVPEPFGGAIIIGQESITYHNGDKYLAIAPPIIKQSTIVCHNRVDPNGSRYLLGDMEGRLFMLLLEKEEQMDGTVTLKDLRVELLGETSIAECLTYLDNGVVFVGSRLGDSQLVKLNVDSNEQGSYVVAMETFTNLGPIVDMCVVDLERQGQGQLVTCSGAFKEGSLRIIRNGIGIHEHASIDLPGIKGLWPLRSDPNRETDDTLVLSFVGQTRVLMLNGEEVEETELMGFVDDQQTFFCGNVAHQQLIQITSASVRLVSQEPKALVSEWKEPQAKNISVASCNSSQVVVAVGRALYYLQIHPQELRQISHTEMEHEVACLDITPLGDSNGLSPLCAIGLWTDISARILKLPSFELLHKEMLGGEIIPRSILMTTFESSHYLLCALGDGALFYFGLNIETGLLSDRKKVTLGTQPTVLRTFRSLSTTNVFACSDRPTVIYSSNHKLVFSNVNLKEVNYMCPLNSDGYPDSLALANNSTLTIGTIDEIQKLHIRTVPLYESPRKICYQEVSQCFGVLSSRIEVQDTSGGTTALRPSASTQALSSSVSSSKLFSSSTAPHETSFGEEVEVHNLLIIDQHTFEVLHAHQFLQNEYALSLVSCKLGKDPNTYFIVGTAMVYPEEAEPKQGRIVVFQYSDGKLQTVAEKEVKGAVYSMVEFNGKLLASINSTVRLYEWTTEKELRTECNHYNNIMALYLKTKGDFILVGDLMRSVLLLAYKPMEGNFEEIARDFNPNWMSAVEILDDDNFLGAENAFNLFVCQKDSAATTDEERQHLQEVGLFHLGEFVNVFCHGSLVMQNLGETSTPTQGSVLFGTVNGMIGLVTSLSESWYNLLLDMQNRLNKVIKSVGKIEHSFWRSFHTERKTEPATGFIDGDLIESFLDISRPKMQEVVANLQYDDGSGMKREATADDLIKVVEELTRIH
Primary antibody (human GSPT1, Sigma HPA052488) was diluted in blocking buffer (dil.1/300, 35 μl/well) and incubated with the cells overnight at 4° C. […] After three final PBS washes, samples were conserved in 100 μl PBS in the dark, until measurement. Image acquisition was performed on the Operetta High-Content Imager (Perkin-Elmer). […] For the determination of GSPT1 DC50 values, a custom algorithm implemented in the PerkinElmer image analysis software Harmony-Acapella® was developed. After user-defined setting of adjustment parameters, the analysis was run identically without human intervention for all image fields. DAPI staining of the nuclei was used to determine the location of cells using standard nuclei detection modules. Segmentation artifacts were removed by threshold-based filters for area, roundness and intensity. The outline of the cells was determined analogously from the sum of the normalized, smoothed DAPI and Actin channel, starting from each nucleus.
GSPT1 degradation (DC50) was calculated after normalization to controls and data import in CDD vault Database, using non-linear regression.

For assay [3], the target named is T3, IKZF1 (Ikaros) (Homo sapiens, UniProt Q13422).
T3 construct: endogenous in cells; host or cells: MM1S (ATCC CRL-2974)
T3 sequence (Q96SW2 whole entry partner): as the sequence (Q96SW2 whole entry) above
T3 sequence (Q16531 2-1140 partner limits assumed): as the sequence (Q16531 2-1140 partner limits assumed) above
T3 sequence (Q13422 whole entry): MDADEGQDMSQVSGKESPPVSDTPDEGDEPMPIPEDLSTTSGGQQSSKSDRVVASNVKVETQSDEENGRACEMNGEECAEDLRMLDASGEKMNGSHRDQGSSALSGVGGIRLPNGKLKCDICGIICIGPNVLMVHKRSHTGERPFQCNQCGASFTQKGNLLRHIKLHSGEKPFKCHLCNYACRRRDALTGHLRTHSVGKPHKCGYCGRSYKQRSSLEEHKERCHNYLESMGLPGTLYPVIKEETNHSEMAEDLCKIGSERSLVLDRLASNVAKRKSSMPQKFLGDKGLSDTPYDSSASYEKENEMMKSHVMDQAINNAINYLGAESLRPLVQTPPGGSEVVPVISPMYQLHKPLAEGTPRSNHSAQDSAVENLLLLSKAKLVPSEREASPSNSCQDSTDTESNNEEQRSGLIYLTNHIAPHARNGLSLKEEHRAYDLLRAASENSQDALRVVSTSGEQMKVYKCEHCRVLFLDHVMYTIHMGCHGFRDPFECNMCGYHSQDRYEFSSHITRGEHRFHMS
Nature of the assay: Western blot selectivity assay in MM1S cells: IKZF1. In kind it is cell-based. Also noted: key: A represents a no degradation observed at 30 μM; B represents trace degradation at 30 μM (below 20%); C represents weak degradation at 30 μM (below 50%); D represents degradation at 30 μM (>90%); E represents degradation at 3 μM (>90%); F represents degradation at 0.3 μM (>90%). Particulars: MM1S cells, 0.3, 3 and 30 μM, 6 hours. As for the experimental part: (§1) MM1S cells were purchased from ATCC (cat. Number CRL-2974), sub-cultured in 90% RPMI 1640 with 10% FBS, supplemented with 1×P/S and incubated at 37° C., 5% CO2. Compounds were stored as 10 mM DMSO stock. For the assay, MM1S cells (3 million cells/well) were plated in 6-well plates and incubated over night. Cells were treated with respective compounds using a serial dilution: 0.3 μM, 3 μM and 30 μM as well as a vehicle only (DMSO) control for 6 hours. Media with suspension cells was subsequently transferred to 15 mL conical tubes, wells rinsed twice with ice-cold PBS and merged with cell suspension in respective 15 mL conical tube. Cells were spinned down, supernatant aspirated, pellets resuspended in ice-cold PBS and transferred to microtubes. Cells were spinned down, supernatant aspirated and pellets resuspended in 120 μL RIPA lysis buffer supplemented with protease and phosphatase inhibitors. Cell lysates were incubated on ice for 20 minutes followed by centrifugation at >20,000×g for 5 min. Supernatants were transferred to fresh microtubes and stored at −80° C. Total protein concentration was determined using a BCA assay with a BSA standard curve and concentration of all samples was adjusted to 1 mg/mL. 25 μL 4×LDS sample buffer supplemented with 100 mM DTT was added to 75 μL sample. Samples were centrifuged (8,000×g, 1 min) and incubated at 95° C. for 5 min followed by another centrifugation step (8,000×g, 1 min). 20 μL of each sample was loaded on a 4-12% gel alongside a protein molecular weight marker. Gels were run in the presence of MOPS buffer at 80 Volts for 30 min, followed by 120 Volts for 1.5 h and proteins subsequently transferred onto nitrocellulose membranes at 20 Volts for 7 min using an iBlot2 Gel Transfer Device. Membranes were then cut horizontally into two pieces, covering 80-50 kDa and 50-25 kDa. Blocking the membranes was performed by gently shaking in 5% (w/v) skim milk in TSB-T for 1 hr at room temperature. All primary antibodies were used at a 1/1000 in 5% (w/v) BSA dissolved in TBST and incubated with membranes over night at 4° C. Anti-IKZF1 (Ikaros; D6N9Y; 14859S), anti-IKZF3 (Aiolos; D1C1E; 15103S) antibodies were purchased from Cell Signalling Technology, anti-ZFP91 antibody from Bethyl laboratories, anti-GSPT1 from Sigma Aldrich (HPA052488) and anti CK1alpha from AbCam (ab206652). After three washes with 1×TBST for 5 min, HRP-coupled secondary antibodies diluted in 5% (w/v) BSA/TBST (Goat Anti-Rb IgG, dil. 1/10,000; Goat Anti-Mouse IgG, dil. 1/5000) were added for 1 hr at room temperature. After three washes with 1×TBST (5 minutes each), membranes were incubated with ECL reagent for 1 min at room temperature. Chemiluminescence signals were then detected using a LAS-4000 system with default settings and signals quantified using Image Studio Lite software (version 5.2). Membrane parts previously incubated with antibody against CK1alpha were stripped off antibodies by incubating with stripping buffer for 30 minutes followed by three washed with TBST (5 min each), blocking with 5% (w/v) skim milk for 1 hr, and incubation with primary antibody against GAPDH overnight at 4° C. Subsequent washes, incubation with secondary antibody and signal acquisition were performed as described above.

In assay [4] the target is T2, GSPT1. Nature of the assay: Western blot selectivity assay in MM1S cells: GSPT1. Conditions: MM1S cells, 0.3, 3 and 30 μM, 6 hours. In kind it is cell-based. Also noted: endogenous in cells; host or cells: MM1S (ATCC CRL-2974). On the procedure:
as §1

The target in assay [5] is T2, GSPT1. In words: Immunofluorescence assay for GSPT1 degradation in CAL-51 cells (Example 10). Conditions: 6 h, read-out: IF Class (GSPT1 degradation, DC50). Also on record: host or cells: CAL-51. In kind it is cell-based. On the procedure:
The representative compounds were tested in an immunofluorescence assay for their activity to degrade GSPT1. […] Compounds were stored at 10 mM DMSO stocks. […] Cells were subsequently rinsed with PBS and fixed in 10% Formalin solution (50 μl, Sigma HT5011)) for 20 mins at room temperature. […] Following three further PBS washes, 50 μL blocking buffer (1% BSA, Sigma A4503, in PBS) was added for 45 min for signal-to noise reduction. Primary antibody (human GSPT1, Sigma HPA052488) was diluted in blocking buffer (dil.1/300, 35 μL/well) and incubated with the cells overnight at 4° C. […] After three final PBS washes, samples were conserved in 100 μL PBS in the dark, until measurement. Image acquisition was performed on the Operetta High-Content Imager (Perkin-Elmer). […] For the determination of GSPT1 DC50 values, a custom algorithm implemented in the PerkinElmer image analysis software Harmony-Acapella® was developed. After user-defined setting of adjustment parameters, the analysis was run identically without human intervention for all image fields.
DAPI staining of the nuclei was used to determine the location of cells using standard nuclei detection modules. Segmentation artifacts were removed by threshold-based filters for area, roundness and intensity. The outline of the cells was determined analogously from the sum of the normalized, smoothed DAPI and Actin channel, starting from each nucleus. […] GSPT1 degradation (DC50) was calculated after normalization to controls and data import in CDD vault Database, using non-linear regression.

The target in assay [6] is CRBN-DDB1 (Homo sapiens, UniProt Q96SW2). In words: HTRF binding of compounds to CRBN. Particulars: read-out: HTRF Class (Cereblon binding, HTRF IC50). Put shortly:
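CRBN-DDB1 binding measured by HTRF displacement of a Cy5-labelled thalidomide-type probe; 10-point 1:3 compound series, 30 min at ambient temperature. IC50 from curve fitting; Ki from geometric-mean IC50 via Cheng-Prusoff.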

[7] abbreviates: bounds stated in the text lists b2059-b2061, read-out: IC50 value.
Where [8] appears, read: cereblon binding, class code, read-out: rFP IC50.

Chain of CRBN-DDB1 (Q96SW2 whole entry): as the sequence (Q96SW2 whole entry) above
Chain of CRBN-DDB1 (Q16531 whole entry partner): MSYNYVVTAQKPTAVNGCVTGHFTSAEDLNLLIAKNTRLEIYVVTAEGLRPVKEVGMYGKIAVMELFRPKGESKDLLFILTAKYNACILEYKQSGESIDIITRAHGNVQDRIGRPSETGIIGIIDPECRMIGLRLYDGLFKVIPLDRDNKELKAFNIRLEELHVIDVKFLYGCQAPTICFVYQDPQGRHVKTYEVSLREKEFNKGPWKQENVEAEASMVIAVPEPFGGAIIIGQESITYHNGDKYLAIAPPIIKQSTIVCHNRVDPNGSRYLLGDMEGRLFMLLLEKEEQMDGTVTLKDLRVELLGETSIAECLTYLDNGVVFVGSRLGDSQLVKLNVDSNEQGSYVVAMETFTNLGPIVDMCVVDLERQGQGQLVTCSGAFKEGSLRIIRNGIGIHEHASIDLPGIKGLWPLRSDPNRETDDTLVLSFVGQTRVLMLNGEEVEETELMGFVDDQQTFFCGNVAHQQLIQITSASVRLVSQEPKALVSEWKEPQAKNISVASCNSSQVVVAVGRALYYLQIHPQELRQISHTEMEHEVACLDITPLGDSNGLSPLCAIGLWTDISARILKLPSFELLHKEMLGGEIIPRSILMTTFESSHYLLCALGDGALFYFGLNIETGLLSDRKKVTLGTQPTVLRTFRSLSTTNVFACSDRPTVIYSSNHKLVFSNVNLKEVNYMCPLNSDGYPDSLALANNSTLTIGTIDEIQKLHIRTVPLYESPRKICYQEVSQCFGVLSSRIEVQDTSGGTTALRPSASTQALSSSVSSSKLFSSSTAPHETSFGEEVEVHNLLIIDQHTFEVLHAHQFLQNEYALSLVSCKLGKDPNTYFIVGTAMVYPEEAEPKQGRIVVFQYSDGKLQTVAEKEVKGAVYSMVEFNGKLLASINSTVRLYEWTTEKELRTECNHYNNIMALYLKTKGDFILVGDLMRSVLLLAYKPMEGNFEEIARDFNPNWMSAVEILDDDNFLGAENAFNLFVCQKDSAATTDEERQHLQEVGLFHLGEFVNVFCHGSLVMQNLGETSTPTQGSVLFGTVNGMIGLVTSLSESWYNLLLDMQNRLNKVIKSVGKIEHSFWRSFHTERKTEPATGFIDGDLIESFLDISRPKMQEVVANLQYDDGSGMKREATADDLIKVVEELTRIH
T1 sequence (Q96SW2 whole entry): as the sequence (Q96SW2 whole entry) above

Take `O=C1CCC(N2Cc3ccc(COC(=O)Nc4ccc(C5(F)CC5)cc4)cc3C2=O)C(=O)N1` (centres unmarked) [Compound 115, (2-(2,6-dioxopiperidin-3-yl)-3-oxoisoindolin-5-yl)methyl(4-(1-fluorocyclopropyl)phenyl) carbamate]: the IC50 in assay [1] (setting [7]) and in assay [1] (setting [8]) was under 500 nM throughout. Moreover, the DC50 in assay [2] (CAL-51 cells, 6 hours, read-out: Code (activity for GSPT1 degradation, DC50)) lay within 30 to 300 nM.

Turning to `O=C1CCC(N2Cc3ccc(COC(=O)Nc4ccc(N5CCCCC5)nc4)cc3C2=O)C(=O)N1` (centres unmarked) [Compound 15], in assay [3], the IKZF1 degradation entry is “A”. Besides, the GSPT1 degradation result in assay [4] is listed as “F (F represents degradation at 0.3 μM (>90%))”. Besides, the IC50 was under 1700 nM in assay [1] (setting [7]) and 500 to 1100 nM in assay [1] (setting [8]).

In the case of `CC(C)(C)c1ccc(NC(=O)OCc2ccc3c(c2)C(=O)N(C2CCC(=O)NC2=O)C3)cn1` (centres unmarked) [Compound 43], the IKZF1 degradation result in assay [3] was “A”. In addition, the GSPT1 degradation entry in assay [4] was “F (F represents degradation at 0.3 μM (>90%))”.

Regarding `O=C1CCC(N2Cc3ccc(COC(=O)Nc4cc(Cl)cc(OC(F)(F)F)c4)cc3C2=O)C(=O)N1` (centres unmarked) [Compound 11], the half-maximal degradation concentration (DC50) in assay [2] (compounds with code A, read-out: DC50 value) is at most 30 nM.

As to `CCc1ccc(F)c(NC(=O)OCc2ccc3c(c2)C(=O)N(C2CCC(=O)NC2=O)C3)c1` (centres unmarked) [Compound 210, (2-(2,6-dioxopiperidin-3-yl)-3-oxoisoindolin-5-yl)methyl (5-ethyl-2-fluorophenyl)carbamate], the DC50 in assay [5] is over 300 nM. Further, the IC50 in assay [6] was under 100 nM.

`CC(C)(C)OC(=O)C12CC(NC(=O)OCc3ccc4c(c3)C(=O)N(C3CCC(=O)NC3=O)C4)(C1)C2` (centres unmarked) [Compound 224, tert-butyl 3-((((2-(2,6-dioxopiperidin-3-yl)-3-oxoisoindolin-5-yl)methoxy)carbonyl)amino)bicyclo[1.1.1]pentane-1-carboxylate]: the half-maximal degradation concentration (DC50) in assay [5] was in the range of 30 to 300 nM. Also, in assay [6], the IC50 was 100 to 1000 nM.

Consider `O=C1CCC(N2Cc3ccc(COC(=O)N[C@H]4C[C@@H](c5ccccc5)C4)cc3C2=O)C(=O)N1` (some centres unmarked) [Compound 158, (2-(2,6-dioxopiperidin-3-yl)-3-oxoisoindolin-5-yl)methyl ((1s,3s)-3-phenylcyclobutyl)carbamate], for which the DC50 in assay [5] was over 300 nM. Besides, in assay [6], the IC50 is under 100 nM.

In the case of `Cc1cccc(NC(=O)OCc2ccc3c(c2)C(=O)N(C2CCC(=O)NC2=O)C3)c1` (centres unmarked) [Compound 160, (2-(2,6-dioxopiperidin-3-yl)-3-oxoisoindolin-5-yl)methyl m-tolylcarbamate], the DC50 in assay [5] is over 300 nM. Besides, the IC50 in assay [6] was 100 to 1000 nM.

For the compound `Cc1c(Cl)cc(NC(=O)OCc2ccc3c(c2)C(=O)N(C2CCC(=O)NC2=O)C3)cc1OCCN1CCOCC1` (centres unmarked) [Compound 48], the IKZF1 degradation entry in assay [3] is recorded as “A”. Moreover, in assay [4], the GSPT1 degradation entry is recorded as “F (F represents degradation at 0.3 μM (>90%))”. In addition, the figures for the 50% inhibitory concentration (IC50) in assay [1] (setting [7]) and in assay [1] (setting [8]) were under 1700 nM and 1100 to 1700 nM, respectively.

As to `O=C1CCC(N2Cc3ccc(COC(=O)Nc4ccc(C5CCC5)cn4)cc3C2=O)C(=O)N1` (centres unmarked) [Compound 181, (2-(2,6-dioxopiperidin-3-yl)-3-oxoisoindolin-5-yl)methyl (5-cyclobutylpyridin-2-yl)carbamate], the DC50 in assay [5] lay in the range of 30 to 300 nM. Moreover, the IC50 in assay [6] was 100 to 1000 nM.

As for `CC(C)(C)N1CC(NC(=O)OCc2ccc3c(c2)C(=O)N(C2CCC(=O)NC2=O)C3)C1` (centres unmarked) [Compound 172, (2-(2,6-dioxopiperidin-3-yl)-3-oxoisoindolin-5-yl)methyl (1-(tert-butyl)azetidin-3-yl)carbamate], the DC50 in assay [5] is over 300 nM. Further, in assay [6], the IC50 was in the range of 100 to 1000 nM.

On to `Cc1ccc(NC(=O)OCc2ccc3c(c2)C(=O)N(C2CCC(=O)NC2=O)C3)cc1` (centres unmarked) [Compound 162, (2-(2,6-dioxopiperidin-3-yl)-3-oxoisoindolin-5-yl)methyl p-tolylcarbamate], for which the DC50 in assay [5] was over 300 nM. In assay [6], the IC50 was 100 to 1000 nM.

As for `O=C1CCC(N2Cc3ccc(COC(=O)NC4(c5ccccc5)CC4)cc3C2=O)C(=O)N1` (centres unmarked) [Compound 171, (2-(2,6-dioxopiperidin-3-yl)-3-oxoisoindolin-5-yl)methyl (1-phenylcyclopropyl)carbamate], the DC50 in assay [5] is over 300 nM. In assay [6], the IC50 lay in the range of 100 to 1000 nM.

On to `CC(C)c1ccc(F)c(NC(=O)OCc2ccc3c(c2)C(=O)N(C2CCC(=O)NC2=O)C3)c1` (centres unmarked) [Compound 205, (2-(2,6-dioxopiperidin-3-yl)-3-oxoisoindolin-5-yl)methyl (2-fluoro-5-isopropylphenyl)carbamate], for which, in assay [5], the DC50 lay in the range of 30 to 300 nM. Besides, the IC50 in assay [6] is 100 to 1000 nM.
